Holding throughout (format): functional
In assay [1] the test system is Streptococcus pneumoniae. Briefly: Potency index, ratio of azithromycin MIC to compound MIC against erythromycin-resistant Streptococcus pneumoniae A22072.
Assay [2] concerns Streptococcus pneumoniae. Briefly: Antibacterial activity against erythromycin-resistant Streptococcus pneumoniae AB11 harboring harboring mef and erm gene after 24 h by NCCLS broth microdilution method. The conditions noted are these: AB11, 24 h. On the technique in general: In broth dilution the organism is exposed to a series of concentrations in liquid medium.
Assay [3] deals with Staphylococcus aureus. Description: Antibacterial activity against erythromycin-susceptible Staphylococcus aureus ATCC 25923 after 24 h by NCCLS broth microdilution method. The conditions noted are these: ATCC 25923, 24 h.
In assay [4] the test system is Streptococcus pneumoniae. Briefly: Potency index, ratio of clarithromycin MIC to compound MIC against erythromycin-resistant Streptococcus pneumoniae A22072.
The subject of assay [5] is Staphylococcus aureus. Description: Antibacterial activity against […] Staphylococcus aureus ATCC 29213 after 24 h by NCCLS broth microdilution method. Conditions: ATCC 29213, 24 h.
Assay [6] relates to Streptococcus pyogenes. Briefly: Antibacterial activity against erythromycin-susceptible Streptococcus pyogenes after 24 h by NCCLS broth microdilution method.
A further assay concerns Escherichia coli. Description: Antibacterial activity against penicillin-susceptible Escherichia coli ATCC 25922 after 24 h by NCCLS broth microdilution method. Conditions: ATCC 25922, 24 h.
For assay [7], the system named is Streptococcus pyogenes. Briefly: Antibacterial activity against erythromycin-resistant Streptococcus pyogenes R1 after 24 h by NCCLS broth microdilution method. Conditions: R1, 24 h.
In assay [8] the test system is Streptococcus pneumoniae. Description: Antibacterial activity against erythromycin-resistant Streptococcus pneumoniae A22072 harboring mef gene after 24 h by NCCLS broth microdilution method. The conditions noted are these: A22072, 24 h.
Another assay has as its system Pseudomonas aeruginosa. Description: Antibacterial activity against penicillin-susceptible Pseudomonas aeruginosa ATCC 27853 after 24 h by NCCLS broth microdilution method. The conditions noted are these: ATCC 27853, 24 h.
Assay [9] has as its system Streptococcus pneumoniae. Briefly: Antibacterial activity against erythromycin-resistant Streptococcus pneumoniae B1 harboring erm gene after 24 h by NCCLS broth microdilution method. Conditions: B1, 24 h.
For a further assay, the system named is Bacillus subtilis. Briefly: Antibacterial activity against penicillin-susceptible Bacillus subtilis ATCC 9372 after 24 h by NCCLS broth microdilution method. Conditions: ATCC 9372, 24 h.

Converted amounts (≈) assume the structure as drawn.

As usually defined, the MIC is the least concentration at which growth counts as inhibited. Low readings indicate inhibition by little substance, high ones a need for much substance. Regarding `CC[C@H]1OC(=O)[C@H](C)C(=O)[C@H](C)[C@@H](O[C@@H]2O[C@H](C)C[C@H](N(C)C)[C@H]2O)[C@](C)(OC)C[C@@H](C)C(=O)[C@H](C)[C@@H](OC(=O)NCCNC(=O)/C=C/c2ccc(Cl)cc2)[C@]1(C)O`, the Ratio in the assay on Streptococcus pneumoniae [1] is reported as 4; with Streptococcus pneumoniae [4], 8. Also, the minimum inhibitory concentration (MIC) with Streptococcus pneumoniae [2] is 128 µg/mL (≈ 153 µM); against Staphylococcus aureus [3] it was 16 µg/mL (≈ 19.1 µM); against Staphylococcus aureus [5], 64 µg/mL (≈ 76.3 µM); in the assay on Streptococcus pyogenes [6], 2 µg/mL (≈ 2.39 µM); against Escherichia coli it was above 128 µg/mL; against Streptococcus pyogenes [7], above 128 µg/mL. The MIC with Streptococcus pneumoniae [8] was 0.5 µg/mL (≈ 0.596 µM); in the assay on Pseudomonas aeruginosa, above 128 µg/mL; against Streptococcus pneumoniae [9], 128 µg/mL (≈ 153 µM); in the assay on Bacillus subtilis it was 4 µg/mL (≈ 4.77 µM).

Turning to `CC[C@H]1OC(=O)[C@H](C)C(=O)[C@H](C)[C@@H](O[C@@H]2O[C@H](C)C[C@H](N(C)C)[C@H]2O)[C@](C)(OC)C[C@@H](C)C(=O)[C@H](C)[C@@H](OC(=O)NCCNC(=O)/C=C/c2ccc(Cl)cc2Cl)[C@]1(C)O`, the minimal inhibitory concentration (MIC) against Streptococcus pneumoniae [2] came to 128 µg/mL (≈ 147 µM); in the assay on Staphylococcus aureus [3], 8 µg/mL (≈ 9.17 µM); against Staphylococcus aureus [5], 32 µg/mL (≈ 36.7 µM); in the assay on Streptococcus pyogenes [6] it was 2 µg/mL (≈ 2.29 µM); with Escherichia coli, 128 µg/mL (≈ 147 µM); with Streptococcus pyogenes [7] it was 64 µg/mL (≈ 73.3 µM). Further, the MIC is 2 µg/mL (≈ 2.29 µM) in the assay with Streptococcus pneumoniae [8], above 128 µg/mL against Pseudomonas aeruginosa, 128 µg/mL (≈ 147 µM) with Streptococcus pneumoniae [9] and 2 µg/mL (≈ 2.29 µM) in the assay on Bacillus subtilis.

With `CC[C@H]1OC(=O)[C@H](C)C(=O)[C@H](C)[C@@H](O[C@@H]2O[C@H](C)C[C@H](N(C)C)[C@H]2O)[C@](C)(OC)C[C@@H](C)C(=O)[C@H](C)[C@@H](OC(=O)NCCNC(=O)/C=C/c2ccccc2Cl)[C@]1(C)O`, the MIC was 128 µg/mL (≈ 153 µM) against Streptococcus pneumoniae [2]; 32 µg/mL (≈ 38.2 µM) with Staphylococcus aureus [3]; 32 µg/mL (≈ 38.2 µM) with Staphylococcus aureus [5]; 2 µg/mL (≈ 2.39 µM) in the assay on Streptococcus pyogenes [6]; 128 µg/mL (≈ 153 µM) against Escherichia coli; above 128 µg/mL in the assay with Streptococcus pyogenes [7]. Moreover, the MIC is 2 µg/mL (≈ 2.39 µM) in the assay on Streptococcus pneumoniae [8], above 128 µg/mL in the assay with Pseudomonas aeruginosa, 128 µg/mL (≈ 153 µM) against Streptococcus pneumoniae [9] and 4 µg/mL (≈ 4.77 µM) in the assay on Bacillus subtilis.

On to `CC[C@H]1OC(=O)[C@H](C)C(=O)[C@H](C)[C@@H](O[C@@H]2O[C@H](C)C[C@H](N(C)C)[C@H]2O)[C@](C)(OC)C[C@@H](C)C(=O)[C@H](C)[C@@H](OC(=O)NCCNC(=O)/C=C/c2ccc(C)cc2)[C@]1(C)O`, for which the MIC was 64 µg/mL (≈ 78.2 µM) with Streptococcus pneumoniae [2]; 64 µg/mL (≈ 78.2 µM) against Staphylococcus aureus [3]; 64 µg/mL (≈ 78.2 µM) in the assay on Staphylococcus aureus [5]; 4 µg/mL (≈ 4.89 µM) in the assay with Streptococcus pyogenes [6]; above 128 µg/mL in the assay with Escherichia coli; above 128 µg/mL against Streptococcus pyogenes [7]. Further, the MIC is 4 µg/mL (≈ 4.89 µM) with Streptococcus pneumoniae [8], above 128 µg/mL in the assay on Pseudomonas aeruginosa, 128 µg/mL (≈ 156 µM) against Streptococcus pneumoniae [9] and 8 µg/mL (≈ 9.78 µM) against Bacillus subtilis.

Take `CC[C@H]1OC(=O)[C@H](C)C(=O)[C@H](C)[C@@H](O[C@@H]2O[C@H](C)C[C@H](N(C)C)[C@H]2O)[C@](C)(OC)C[C@@H](C)C(=O)[C@H](C)[C@@H](OC(=O)NCCNC(=O)c2cc([N+](=O)[O-])cc([N+](=O)[O-])c2)[C@]1(C)O`: the Ratio with Streptococcus pneumoniae [1] was found to be 4; in the assay with Streptococcus pneumoniae [4], 8. Further, the MIC was 64 µg/mL (≈ 73.7 µM) in the assay with Streptococcus pneumoniae [2]; 8 µg/mL (≈ 9.22 µM) against Staphylococcus aureus [3]; 128 µg/mL (≈ 147 µM) in the assay with Staphylococcus aureus [5]; 0.125 µg/mL (≈ 0.144 µM) in the assay on Streptococcus pyogenes [6]; 128 µg/mL (≈ 147 µM) in the assay with Escherichia coli; 128 µg/mL (≈ 147 µM) with Streptococcus pyogenes [7]. The MIC with Streptococcus pneumoniae [8] is 0.5 µg/mL (≈ 0.576 µM); in the assay on Pseudomonas aeruginosa, 128 µg/mL (≈ 147 µM); in the assay with Streptococcus pneumoniae [9], 128 µg/mL (≈ 147 µM); against Bacillus subtilis, 1 µg/mL (≈ 1.15 µM).

With `CC[C@H]1OC(=O)[C@H](C)[C@@H](O[C@H]2C[C@@](C)(OC)[C@@H](O)[C@H](C)O2)[C@H](C)[C@@H](O[C@@H]2O[C@H](C)C[C@H](N(C)C)[C@H]2O)[C@](C)(O)C[C@@H](C)CN(C)[C@H](C)[C@@H](O)[C@]1(C)O` [AZITHROMYCIN], the MIC is above 128 µg/mL against Streptococcus pneumoniae [2]; 0.25 µg/mL (≈ 0.334 µM) in the assay on Staphylococcus aureus [3]; 8 µg/mL (≈ 10.7 µM) against Staphylococcus aureus [5]; 0.03 µg/mL (≈ 0.0401 µM) against Streptococcus pyogenes [6]; 16 µg/mL (≈ 21.4 µM) with Escherichia coli; above 128 µg/mL against Streptococcus pyogenes [7]. The minimum inhibitory concentration (MIC) against Streptococcus pneumoniae [8] was 2 µg/mL (≈ 2.67 µM); in the assay with Pseudomonas aeruginosa, 16 µg/mL (≈ 21.4 µM); against Streptococcus pneumoniae [9] it was above 128 µg/mL; with Bacillus subtilis, 0.25 µg/mL (≈ 0.334 µM).

Take `CC[C@H]1OC(=O)[C@H](C)[C@@H](O[C@H]2C[C@@](C)(OC)[C@@H](O)[C@H](C)O2)[C@H](C)[C@@H](O[C@@H]2O[C@H](C)C[C@H](N(C)C)[C@H]2O)[C@](C)(OC)C[C@@H](C)C(=O)[C@H](C)[C@@H](O)[C@]1(C)O` [CLARITHROMYCIN]: the MIC is 128 µg/mL (≈ 171 µM) against Streptococcus pneumoniae [2]; 0.25 µg/mL (≈ 0.334 µM) against Staphylococcus aureus [3]; 64 µg/mL (≈ 85.6 µM) against Staphylococcus aureus [5]; 0.03 µg/mL (≈ 0.0401 µM) in the assay with Streptococcus pyogenes [6]; 64 µg/mL (≈ 85.6 µM) against Escherichia coli; above 128 µg/mL against Streptococcus pyogenes [7]. Besides, the minimum inhibitory concentration (MIC) in the assay with Streptococcus pneumoniae [8] is 4 µg/mL (≈ 5.35 µM); in the assay with Pseudomonas aeruginosa, 64 µg/mL (≈ 85.6 µM); against Streptococcus pneumoniae [9], above 128 µg/mL; in the assay on Bacillus subtilis, 0.25 µg/mL (≈ 0.334 µM).
